Assay results reported in US12202832B2, “Heterocyclic compounds having a calcium-sensing receptor antagonistic activity” (TAKEDA PHARMACEUTICAL COMPANY LIMITED, priority 2017, dated 2025).

Columns and labels:
human CaSR = target: T1, human CaSR (Homo sapiens, UniProt P41180); test: Human CaSR antagonist activity (NFAT-Luciferase reporter in CHO cells); type: cell-based; settings: CHO, CaCl2 final 1.3 mM, 100% = reference antagonist at 10 μM, read-out: Inhibition rate (%) at 3.3 μM
T1 construct: expressed in transfected cells; host or cells: CHO cells
T1 sequence (P41180 20-1078): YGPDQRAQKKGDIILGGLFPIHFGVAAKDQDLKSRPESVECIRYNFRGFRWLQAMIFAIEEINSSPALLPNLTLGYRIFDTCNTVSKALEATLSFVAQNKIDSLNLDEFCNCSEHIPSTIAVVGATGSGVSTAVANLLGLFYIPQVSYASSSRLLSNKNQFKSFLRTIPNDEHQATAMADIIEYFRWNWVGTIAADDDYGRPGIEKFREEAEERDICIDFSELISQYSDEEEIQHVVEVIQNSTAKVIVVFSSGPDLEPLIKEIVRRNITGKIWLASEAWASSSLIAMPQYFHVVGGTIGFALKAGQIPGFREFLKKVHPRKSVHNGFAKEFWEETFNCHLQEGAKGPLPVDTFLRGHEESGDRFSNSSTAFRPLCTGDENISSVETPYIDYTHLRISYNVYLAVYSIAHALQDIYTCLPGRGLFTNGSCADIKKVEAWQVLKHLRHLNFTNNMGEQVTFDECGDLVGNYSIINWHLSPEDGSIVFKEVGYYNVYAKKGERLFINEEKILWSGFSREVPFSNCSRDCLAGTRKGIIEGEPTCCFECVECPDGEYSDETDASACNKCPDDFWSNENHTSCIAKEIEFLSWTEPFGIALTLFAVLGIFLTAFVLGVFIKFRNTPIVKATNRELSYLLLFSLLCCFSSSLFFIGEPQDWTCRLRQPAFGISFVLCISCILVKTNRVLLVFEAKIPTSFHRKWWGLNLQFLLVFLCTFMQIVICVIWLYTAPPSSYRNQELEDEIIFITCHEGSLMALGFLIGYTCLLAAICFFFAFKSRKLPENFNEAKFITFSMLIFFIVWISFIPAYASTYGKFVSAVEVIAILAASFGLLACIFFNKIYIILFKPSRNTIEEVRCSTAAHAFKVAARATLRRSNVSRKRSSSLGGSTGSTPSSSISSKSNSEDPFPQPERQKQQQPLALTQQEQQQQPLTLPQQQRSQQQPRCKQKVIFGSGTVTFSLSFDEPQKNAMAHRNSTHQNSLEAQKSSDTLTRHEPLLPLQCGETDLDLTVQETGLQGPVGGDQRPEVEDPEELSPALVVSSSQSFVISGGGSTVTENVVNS
Experimental: CaSR antagonist activity measurement was performed using Bright-Glo Luciferase assay system (Promega Corporation). CHO cells in which human CaSR and NFAT-Luciferase reporter gene were forcibly expressed were suspended in MEM alpha (Wako Pure Chemical Industries, Ltd.) containing 10% dialyzed serum (HyClone). The cells in suspension was seeded in 384-well white plate (Corning) at 10,000/20 μL/well, and cultured in an incubator of 37° C., 5% CO2 for one day. A diluent of Test compound was prepared with assay buffer (MEM alpha containing 10 mM HEPES (Life Technologies) and 10% dialysis serum). The diluent was added to the plate at 5 μL/well and allowed to stand at 37° C. for 10 minutes. Further, a diluent of 7.8 mM CaCl2 prepared with assay buffer (final concentration 1.3 mM) was added at 5 μl/well and allowed to stand in an incubator of 37° C., 5% CO2 for 2 hours. Bright-Glo reagents (Promega Corporation) were added at 10 μL/well, and the obtained mixture was stirred for 5 minutes, and then luminescence intensity was measured using Multi-label reader Envision (PerkinElmer, Inc.). The activity (%) of the test compound was calculated with the definitions in which the luminescence intensity when DMSO is added in place of the test compound is defined as 0% inhibition; and the luminescence intensity when (5R)—N-(1-ethyl-1-(4-ethylphenyl)propyl)-2,7,7-trimethyl-5-phenyl-4,5,6,7-tetrahydropyrazolo[1,5-a] Pyrimidine-3-carboxamide at final concentration of 10 μM is added is defined as 100% inhibition.

CYP3A4 = target: T2, CYP3A4 (Homo sapiens, UniProt P08684); test: CYP3A4 TDI in human liver microsomes (testosterone 6β-hydroxylation); type: in vitro ADME; settings: 30 μM test compound, 60 min vs 0 min preincubation, solvent acetonitrile
T2 construct: Human liver microsomes purchased from XenoTech, LLC (Lenexa, KS) was used; tissue XenoTech, LLC (Lenexa, KS); host or cells: human liver microsomes
T2 sequence (P08684 whole entry): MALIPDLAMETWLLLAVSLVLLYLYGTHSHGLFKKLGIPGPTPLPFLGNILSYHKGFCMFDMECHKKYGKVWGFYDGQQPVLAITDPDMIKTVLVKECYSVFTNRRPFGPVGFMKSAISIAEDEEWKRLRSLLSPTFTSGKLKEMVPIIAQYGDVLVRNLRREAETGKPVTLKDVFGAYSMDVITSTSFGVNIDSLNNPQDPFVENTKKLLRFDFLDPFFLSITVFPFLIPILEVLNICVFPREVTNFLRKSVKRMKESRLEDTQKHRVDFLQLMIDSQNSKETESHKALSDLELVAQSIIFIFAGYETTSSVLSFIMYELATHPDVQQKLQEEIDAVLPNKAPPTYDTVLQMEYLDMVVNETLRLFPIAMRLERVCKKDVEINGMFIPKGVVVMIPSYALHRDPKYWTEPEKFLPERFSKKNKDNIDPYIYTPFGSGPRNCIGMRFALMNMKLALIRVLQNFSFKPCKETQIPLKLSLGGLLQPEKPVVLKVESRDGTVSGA
Experimental: Human liver microsomes purchased from XenoTech, LLC (Lenexa, KS) was used. Test compounds were dissolved in acetonitrile or DMSO/acetonitrile (1:4, v/v). To a human liver microsomes solution adjusted with phosphate buffer (pH 7.4), the test compound solution was added to obtain a human liver microsomes reaction solution having the test compound concentration of 30 μM. To the human liver microsome reaction solution, NADPH production system was added, and the mixture was preincubated at 37° C. for 0 minutes or 60 minutes. After the preincubation, probe substrate testosterone was added, and testosterone metabolite 6β-hydroxytestosterone was analyzed by LC/MS/MS to evaluate CYP3A4 enzymatic activity.
The enzyme activity (% of control) at each preincubation point was calculated from the following equation: % of control={(activity of test compound addition group)/(activity of test compound non-addition group)}×100.
The remaining activity (% remaining) after 60 minutes of preincubation was calculated from the following equation: Remaining activity (%)={activity after 60 minutes (% of control60 min)}/{activity after 0 minutes (% of control0 min)}×100.

CYP3A = test: CYP induction (CYP3A activity in cryopreserved hepatocytes, P450-Glo CYP3A4 assay); type: in vitro ADME; settings: % of positive control; inducibility by 10 μmol/L rifampicin defined as 100%; hepatocytes treated 3 days
Experimental: Cryopreserved hepatocytes were thawed in a culture medium (In VitroGRO™ CP Medium, Celsis In Vitro Technologies, U.S.A.), and the resultant was added to BioCoat™ Matrigel®™ Matrix Thin-Layer 96 well (Becton, Dickinson and Company, U.S.A.) at a concentration of 40,000 cells/well. After culturing for 24 hours, the culture medium was removed, and replaced with an incubation medium (In VitroGRO™, HI Medium with Torpedo Antibiotic Mix, Celsis In Vitro Technologies, U.S.A.). Cells were cultured for an additional 3 days. The medium was removed on day 4, and the remained cells were treated in the induction medium containing a test compound for 3 days in the presence or absence of 10 μmol/L rifampicin. The induction medium was replaced every day. The test compound addition wells in the presence of 10 μmol/L rifampicin were used to evaluate the inhibitory effect of the test compound on the inducibility of the CYP3A activity by rifampicin. The CYP3A activity was evaluated by measuring luciferin generating amount after the addition of 2 μmol/L luciferin-IPA using IPA P450-Glo™ CYP3A4 assay systems (Promega Corporation, U.S.A.). All cultures were carried out under a humidified environment at 37° C., 5% CO2. The inducibility by rifampicin was defines as 100%, and the inducibility of the test compound (% of positive control) was calculated from the following equation: [(luciferin fluorescence intensity in the absence of rifampicin and the presence of test compound)−(luciferin fluorescence intensity in the absence of rifampicin and test compound)/(luciferin fluorescence intensity in the presence of rifampicin and the absence of test compound)−(Luciferin fluorescence intensity in the absence of rifampicin and test compound)]×100.

[1] = test system: monocrotaline (MCT)-induced pulmonary hypertension rats; settings: cited from earlier work
[2] = test system: hypoxia-induced pulmonary hypertension (HPH) mice; settings: cited from earlier work
cardiac hypofunction = settings: dosing after cardiac loading; cited from earlier work
[3] = test system: aortic banding (TAC) models; settings: cited from earlier work

| Compound | inhibition at 3.3 µM (human CaSR) [%] | Remaining Activity (CYP3A4) [%] | Inducibility (CYP3A) [%] | Effect on pulmonary hypertension pathology [1] | Effect on pulmonary hypertension pathology [2] | Effect on cardiac hypofunction (cardiac hypofunction) | Effect on cardiac hypertrophy [3] |
| --- | --- | --- | --- | --- | --- | --- | --- |
| CCc1ccc(C(CC)(NC(=O)c2cnn3c2N[C@@H](c2ccccc2)CC3(C)C)C(=O)N[C@@H](CC)C(N)=O)cc1 (single isomer, unassigned) [Example 6] | 105 | 80.2 | 18.6 | – | – | – | – |
| CC(C)(Cc1ccc2ccccc2c1)NC[C@@H](O)COc1cccc(Cl)c1C#N [NPS-2143] | – | – | – | suppressed cardiac hypertrophy, elevated right ventricular systolic pressure, fibrosis of cardiac muscle tissue, pulmonary vascular remodeling or the like | suppressed cardiac hypertrophy, elevated right ventricular systolic pressure, fibrosis of cardiac muscle tissue, pulmonary vascular remodeling or the like | – | – |
| C[C@@H](N[C@H]1CCCC[C@@H]1NC(=O)c1ccc(Cl)cc1)c1cccc2ccccc12 [Calhex231] | – | – | – | – | – | fails to improve cardiac hypofunction | improves cardiac hypertrophy |

Further lines, with some results ahead:

| inhibition at 3.3 µM (human CaSR) [%] | Remaining Activity (CYP3A4) [%] | Inducibility (CYP3A) [%] | Compound | Effect on pulmonary hypertension pathology [1] | Effect on pulmonary hypertension pathology [2] | Effect on cardiac hypofunction (cardiac hypofunction) | Effect on cardiac hypertrophy [3] |
| --- | --- | --- | --- | --- | --- | --- | --- |
| 99 | 74.3 | 17.3 | CCc1ccc(C(CC)(NC(=O)c2cnn3c2N[C@@H](c2ccccc2)CC3(C)C)C(=O)N[C@H](C(N)=O)C(C)C)cc1 (single isomer, unassigned) [Example 12] | – | – | – | – |
| 102 | 95.6 | 20.8 | CCc1ccc(C(CC)(NC(=O)c2cnn3c2N[C@@H](c2ccccc2)CC3(C)C)C(=O)N[C@@H](C)C(N)=O)cc1 (single isomer, unassigned) [Example 4] | – | – | – | – |
